From patent US5807700A, “Method of screening anti-amebic agents with an E. coli mutant having a deleted adhE gene complemented by the E. histolytica EhADH2 gene” (Washington University, priority 1995, dated 1998)

Columns and labels:
[1] = biological target: T1, purified recombinant EhADH2 (Entamoeba histolytica, UniProt Q24803); test: Substrate specificity and kinetics, ADH activity of purified recombinant EhADH2; type: biochemical; conditions: for substrate for the enzyme (ADH reactivity): purified recombinant EhADH2, 1 mM NAD+, pH 9.5
T1 construct: a NcoI site at the initiating ATG codon using PCR with the EhADH2 cDNA as the template; made in house; host or cells: E. coli SHH31(DE3) carrying pET/EhADH2
T1 sequence (Q24803 1-870): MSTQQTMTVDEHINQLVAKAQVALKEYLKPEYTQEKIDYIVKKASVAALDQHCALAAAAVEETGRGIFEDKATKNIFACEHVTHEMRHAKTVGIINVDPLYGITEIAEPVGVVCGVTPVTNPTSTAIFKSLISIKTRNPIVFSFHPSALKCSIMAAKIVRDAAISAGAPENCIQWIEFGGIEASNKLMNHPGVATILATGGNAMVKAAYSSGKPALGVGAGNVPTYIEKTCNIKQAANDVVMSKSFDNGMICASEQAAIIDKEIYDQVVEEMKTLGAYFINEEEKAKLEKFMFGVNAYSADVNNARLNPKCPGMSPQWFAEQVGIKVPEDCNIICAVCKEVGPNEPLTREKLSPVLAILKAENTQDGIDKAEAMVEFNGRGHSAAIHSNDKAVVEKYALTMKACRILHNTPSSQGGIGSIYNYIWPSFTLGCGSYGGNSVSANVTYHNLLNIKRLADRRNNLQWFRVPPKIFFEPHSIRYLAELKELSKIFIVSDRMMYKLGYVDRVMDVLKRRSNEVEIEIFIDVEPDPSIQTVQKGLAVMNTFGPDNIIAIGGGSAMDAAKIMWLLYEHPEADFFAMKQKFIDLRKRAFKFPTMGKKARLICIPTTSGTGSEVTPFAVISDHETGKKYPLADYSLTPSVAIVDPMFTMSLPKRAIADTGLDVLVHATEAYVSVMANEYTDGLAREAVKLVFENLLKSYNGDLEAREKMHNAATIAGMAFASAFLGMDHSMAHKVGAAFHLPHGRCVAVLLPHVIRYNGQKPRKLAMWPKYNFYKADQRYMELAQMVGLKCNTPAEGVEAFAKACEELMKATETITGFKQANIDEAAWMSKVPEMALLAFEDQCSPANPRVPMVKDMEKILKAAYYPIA
Procedure: (§1) ADH activity of the supernatant fraction from bacterial lysates, or of the purified recombinant enzyme was assayed spectrophotometrically by measuring the decrease in absorbance at 340 nm following the oxidation of NADH to […] (21). The cuvette contained 6 mM DTT, 5 mM MgSO4, 0.1 mM Fe(NH4)2 (SO4)2, 0.4 mM NADH, 10 mM acetaldehyde, and 0.1 M MOPS-KOH buffer (pH 7.5) to give a final volume of 1.0 ml. MOPS=3-[N-Morpholino]propanesulfonic acid; DTT=dithiothreitol.
(§2) To study the substrate specificity and kinetics of the purified recombinant EhADH2 molecule, the spectrophotometric assay of ADH activity was again utilized, with 5 μg of the purified enzyme in the presence of 50 mM glycine/NaOH buffer (pH 9.5) containing 6 mM DTT, 5 mM MgSO4, 0.1 mM Fe(NH4)2 (SO4)2, 1 mM […], and varying concentrations of the substrate alcohol to be tested (11). The Km and Kcat values expressed were determined using non-linear regression to fit the values for initial velocity and substrate concentration to the Michaelis-Menten equation.

native EhADH2 enzyme = biological target: T2, native EhADH2 enzyme (Entamoeba histolytica, UniProt Q24803); conditions: read-out: Km reported for native EhADH2 enzyme; cited from earlier work
T2 construct: essentially identical to that reported for the native EhADH2 enzyme (80 mM) (11)

E. coli AdhE enzyme = E. coli AdhE enzyme (Escherichia coli, UniProt P0A9Q7); conditions: read-out: Km for the E. coli AdhE enzyme; cited from earlier work
Sequence of E. coli AdhE enzyme (P0A9Q7 whole entry): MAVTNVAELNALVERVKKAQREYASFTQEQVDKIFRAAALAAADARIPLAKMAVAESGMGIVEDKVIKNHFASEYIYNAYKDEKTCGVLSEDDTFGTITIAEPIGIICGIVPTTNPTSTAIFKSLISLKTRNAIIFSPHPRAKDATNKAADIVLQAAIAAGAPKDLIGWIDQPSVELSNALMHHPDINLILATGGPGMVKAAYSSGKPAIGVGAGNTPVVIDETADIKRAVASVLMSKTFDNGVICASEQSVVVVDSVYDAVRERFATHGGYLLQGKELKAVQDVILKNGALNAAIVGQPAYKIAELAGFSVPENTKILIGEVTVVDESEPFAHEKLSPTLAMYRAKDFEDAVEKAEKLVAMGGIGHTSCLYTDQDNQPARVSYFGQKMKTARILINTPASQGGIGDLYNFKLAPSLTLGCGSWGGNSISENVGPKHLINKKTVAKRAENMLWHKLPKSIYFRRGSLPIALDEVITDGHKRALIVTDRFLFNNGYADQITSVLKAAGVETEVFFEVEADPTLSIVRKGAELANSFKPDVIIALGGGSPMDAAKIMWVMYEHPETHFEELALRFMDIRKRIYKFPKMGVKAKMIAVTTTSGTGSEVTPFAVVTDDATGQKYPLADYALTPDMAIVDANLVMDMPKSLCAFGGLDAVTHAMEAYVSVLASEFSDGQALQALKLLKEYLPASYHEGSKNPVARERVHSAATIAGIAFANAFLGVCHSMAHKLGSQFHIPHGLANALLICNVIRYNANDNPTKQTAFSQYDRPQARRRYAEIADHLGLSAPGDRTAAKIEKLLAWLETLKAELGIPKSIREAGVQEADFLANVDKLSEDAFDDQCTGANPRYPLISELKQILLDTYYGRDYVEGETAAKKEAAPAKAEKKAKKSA

recombinant EhADH2 = biological target: T3, recombinant EhADH2 (Entamoeba histolytica, UniProt Q24803); test: Inhibition of purified recombinant EhADH2 enzyme (Ki); type: biochemical; conditions: read-out: Ki for the recombinant EhADH2 molecule
T3 construct: a NcoI site at the initiating ATG codon using PCR with the EhADH2 cDNA as the template; made in house; host or cells: E. coli SHH31(DE3) carrying pET/EhADH2
T3 sequence (Q24803 1-870): T1 sequence (Q24803 1-870)
Procedure: as §1, §2

[2] = system: E. coli SHH31/pMON/EhADH2; test: EhADH2 inhibition assay: growth of E. coli SHH31 transformed with pMON/EhADH2 (O.D. at 600 nm); type: cell-based; conditions: M9 minimal liquid medium, pyrazole 5 to 20 mM, O.D. 600 nm at 24 and 48 hrs
Procedure: E. coli and E. histolytica strains and culture conditions. Conventional E. coli strains, DH5α, BL21(DE3), and SHH31 (Δadh zch::Tn10 fadR met tyrT) (15) were used for transformation and the expression of recombinant EhADH2. Aerobic cultures were grown in LB medium with agitation at 37° C. For anaerobic growth, bacteria were incubated in anaerobic jars, BBL®GasPak® System under an H2 -CO2 atmosphere generated by BBL GAS PAK Anaerobic System Envelopes (Becton Dickinson, Cockeysville, Md.).
Anaerobic indicator strips were used to ensure anaerobic conditions. M9 minimal medium used for anaerobic growth was supplemented with glucose at 0.25%, thiamine (1 mM), CaCl2 (0.1 mM), MgSO4 (1.2 mM), and the following trace minerals: Fe(50 μM), Se(5 μM), Mo(5 μM), Mn(5 μM) (16).
Anaerobic liquid cultures were grown without agitation in tubes inside the anaerobic jars at 37° C. Solid media contained 1.5% Bacto Agar (Difco, Detroit, Mich.). […]
(§3) E. coli SHH31 transformed with pMON/EhADH2 were inoculated into M9 minimal liquid medium and grown under anaerobic or aerobic conditions in the presence or absence of pyrazole (Sigma Chemical Co., St. Louis, Mo.) at concentrations of 5 to 20 mM. Growth was monitored by determining the optical density (O.D.) at 600 nm at 24 and 48 hrs post-inoculation. […] Viable trophozoites were counted using a hemacytometer at days 2 and 4, and the number of trophozoites/ml recorded.

EhADH1 = biological target: T4, EhADH1 (Entamoeba histolytica, UniProt P35630); conditions: NADP+-dependent EhADH1; cited from earlier work
T4 sequence (P35630 1-366): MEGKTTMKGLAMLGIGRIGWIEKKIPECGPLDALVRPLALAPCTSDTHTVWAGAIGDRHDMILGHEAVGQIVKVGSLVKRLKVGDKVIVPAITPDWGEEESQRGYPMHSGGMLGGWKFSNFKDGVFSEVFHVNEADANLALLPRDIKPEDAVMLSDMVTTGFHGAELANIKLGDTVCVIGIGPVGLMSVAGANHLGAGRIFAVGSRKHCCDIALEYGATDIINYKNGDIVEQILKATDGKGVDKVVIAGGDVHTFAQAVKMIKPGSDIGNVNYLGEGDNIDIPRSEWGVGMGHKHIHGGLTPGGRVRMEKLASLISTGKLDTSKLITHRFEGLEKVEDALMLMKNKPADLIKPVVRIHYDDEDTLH

[3] = system: E. histolytica HM1:IMSS trophozoites; test: Inhibition of E. histolytica growth (viable trophozoite count); type: cell-based, Entamoeba histolytica; parameters: effect on E. histolytica growth: dose or concentration left out as unconfirmed
Procedure: Anaerobic liquid cultures were grown without agitation in tubes inside the anaerobic jars at 37° C. Solid media contained 1.5% Bacto Agar (Difco, Detroit, Mich.). Trophozoites of E. histolytica HM1:IMSS were cultured axenically in BYI-S-33 medium by conventional procedure as previously described (17).
as §3

[4] = substrate: CCCO; test: Substrate specificity and kinetics, ADH activity of purified recombinant EhADH2; type: biochemical, Entamoeba histolytica; conditions: other: reaction 1-propanol + NAD+
Procedure: (§5) To study the substrate specificity and kinetics of the purified recombinant EhADH2 molecule, the spectrophotometric assay of ADH activity was again utilized, with 5 μg of the purified enzyme in the presence of 50 mM glycine/NaOH buffer (pH 9.5) containing 6 mM DTT, 5 mM MgSO4, 0.1 mM Fe(NH4)2 (SO4)2, 1 mM AND^+, and varying concentrations of the substrate alcohol to be tested (11). The Km and Kcat values expressed were determined using non-linear regression to fit the values for initial velocity and substrate concentration to the Michaelis-Menten equation.

[5] = substrate: CCO; test: as above; type: biochemical, Entamoeba histolytica; conditions: other: reaction ethanol + NAD+
Procedure: as §5

[6] = substrate: CC=O; test: as above; type: biochemical, Entamoeba histolytica; conditions: other: reaction acetaldehyde + NADH
Procedure: as §5

[7] = substrate: NC(=O)C1=CN([C@@H]2O[C@H](COP(=O)(O)OP(=O)(O)OC[C@H]3O[C@@H](n4cnc5c(N)ncnc54)[C@H](O)[C@@H]3O)[C@@H](O)[C@H]2O)C=CC1; test: as above; type: biochemical, Entamoeba histolytica; conditions: other: reaction acetaldehyde + NADH
Procedure: as §5

[8] = substrate: CC(=O)SCCNC(=O)CCNC(=O)[C@H](O)C(C)(C)COP(=O)(O)OP(=O)(O)OC[C@H]1O[C@@H](n2cnc3c(N)ncnc32)[C@H](O)[C@@H]1OP(=O)(O)O; test: ALDH activity kinetics of purified recombinant EhADH2; type: biochemical, Entamoeba histolytica; conditions: other: reaction acetyl-CoA + NADH; pH 9.5
Procedure: (§4) ALDH activity was assayed using the same method, with the substitution of 0.1 mM acetyl-CoA for acetaldehyde in the reaction buffer. A unit of enzyme activity is defined as the micromoles of product formed per min of incubation at room temperature.
as §2

[9] = substrate: NC(=O)C1=CN([C@@H]2O[C@H](COP(=O)(O)OP(=O)(O)OC[C@H]3O[C@@H](n4cnc5c(N)ncnc54)[C@H](O)[C@@H]3O)[C@@H](O)[C@H]2O)C=CC1; test: as above; type: biochemical, Entamoeba histolytica; conditions: other: reaction acetyl-CoA + NADH; pH 9.5
Procedure: as §4, §2

NC(=O)c1ccc[n+]([C@@H]2O[C@H](COP(=O)(O)OP(=O)(O)OC[C@H]3O[C@@H](n4cnc5c(N)ncnc54)[C@H](O)[C@@H]3O)[C@@H](O)[C@H]2O)c1 [NAD^+]
Km ([1]; reaction 1-propanol + NAD+): 250 µM | Km ([1]; reaction ethanol + NAD+): 550 µM

CC=O [acetaldehyde]
Km (native EhADH2 enzyme): 150 µM

CCO [ethanol]
Km (E. coli AdhE enzyme): 30000 µM | Km (native EhADH2 enzyme): 80000 µM

CC(C)O [isopropanol]
substrate for the enzyme (ADH reactivity) [1]: No reactivity

CO [methanol]
substrate for the enzyme (ADH reactivity) [1]: neither retinol nor methanol were substrates

c1cn[nH]c1 [pyrazole]
Ki (recombinant EhADH2): 7.24 mM | effect on growth under aerobic conditions ([2]; aerobic): much reduced effect | inhibition of anaerobic growth of SHH31/pMON/EhADH2 ([2]; anaerobic): in a dose-dependent manner significantly inhibited | Ki (EhADH1): 0.0014 mM | effect on E. histolytica growth [3]: no effect | inhibition of growth of E. histolytica trophozoites ([3]; concentration of 20 to 40 mM, viable trophozoites at days 2 and 4): significantly inhibited amebic growth

CC1=C(/C=C/C(C)=C/C=C/C(C)=C/CO)C(C)(C)CCC1 [retinol]
substrate for the enzyme (ADH reactivity) [1]: neither retinol nor methanol were substrates

CCC(C)O (stereo not drawn) [sec-butanol]
substrate for the enzyme (ADH reactivity) [1]: No reactivity

B1: purified recombinant EhADH2 (Entamoeba histolytica HM-1:IMSS) (protein)
chain: T1 sequence (Q24803 1-870)
notes: a NcoI site at the initiating ATG codon using PCR with the EhADH2 cDNA as the template; made in house; host or cells: E. coli SHH31(DE3) carrying pET/EhADH2
Km [4]: 40000 µM | Km [5]: 85000 µM | Km [6]: 2900 µM | Km [7]: 280 µM | Km [8]: 40 µM | Km [9]: 170 µM
